Series [1] has as its system green peach aphid (Myzus persicae). Put plainly: Myzus test, spray treatment, Example F. The conditions noted are these: 500 g a.i./ha, China cabbage leaf sections. The format is in vivo. The procedure:
(§1) To prepare a suitable active compound preparation 1 part by weight of the active compound is mixed with the given amount of solvent and the given amount of emulsifier and the concentrate is diluted to the desired concentration with water containing emulsifier.
China cabbage leaf sections (brassica pekinensis) that are infected with all stages of the green peach aphid (Myzus persicae) are sprayed with an active compound preparation at the desired concentration.
(§2) After the desired time the activity in % is determined. Here 100% means that all aphids were killed; 0% means that no aphids were killed.

The subject of series [2] is mixed thrips population (Frankliniella occidentalis). The experiment in a line: Frankliniella occidentalis test, Example H. In kind it is in vivo. As to conditions: 100 ppm, cotton plants, spraying. The protocol:
as §1
Cotton plants (Gossypium hirsutum) are treated by spraying with the active compound preparation at the desired concentration and infected with a mixed thrips population (Frankliniella occidentalis).
After the desired time the death rate in % is determined. Here 100% means that all thrips were killed; 0% means that no thrips were killed.

Series [3] has as its system green peach aphid (Myzus persicae). Put plainly: Myzus test, spray treatment, Example B. The conditions noted are these: Chinese cabbage leaves. The format is in vivo. The procedure: To prepare a suitable active compound preparation 1 part by weight of the active compound is mixed with the given amount of solvent and the given amount emulsifier and the concentrate is diluted to the desired concentration with water.
Chinese cabbage leaves (Brassica pekinensis) infested with all stages of the green peach aphid (Myzus persicae) were sprayed with an active compound preparation at the desired concentration.
(§3) After the desired time the death rate in % is determined. Here 100% means that all aphids were killed; 0% means that no aphids were killed.

Series [4] has the same test system. Put plainly: Myzus persicae test (cabbage leaves, immersion), Example A. The format is in vivo. As to conditions: for Death rate in % after 6d: 1000 ppm, cabbage leaves (Brassica oleracea). The protocol:
(§4) To prepare a suitable active compound preparation 1 part by weight of the active compound is mixed with the given amount of solvent and the given amount of emulsifier and the concentrate is diluted to the desired concentration with water.
Cabbage leaves (Brassica oleracea) that are highly infested with the green peach aphid (Myzus persicae) are treated by immersion in the active compound preparation at the desired concentration.
as §3

Series [5] shares this test system. The experiment in a line: Myzus persicae test, soil application, Example C. As to conditions: pepper plant. In kind it is in vivo. The protocol:
as §4
The active compound preparation is mixed with soil. The concentration given relates to the amount of active compound per unit volume soil (mg/l=ppm). The treated soil is filled into pots and planted with one pepper plant (Capsicum annuum). After one week infection is carried out with the green peach aphid (Myzus persicae).
as §2

Series [6] concerns cotton aphid (Aphis gossypii). Put plainly: Aphis gossypii test, soil application, Example D. The format is in vivo. As to conditions: cotton plant. The protocol: as §4
The active compound preparation is mixed with soil. The concentration given relates to the amount of active compound per unit volume soil (mg/l=ppm). The treated soil is filled into pots and planted with one cotton plant (Gossypium hirsutum). After a week infection is carried out with the cotton aphid (Aphis gossypii).
as §3

Series [7] relates to white fly (Bemisia tabaci, resistant strain). The experiment in a line: Bemisia tabaci test, resistant strain, Example E. The format is in vivo. As to conditions: cotton leaf sections, immersion. The protocol:
as §1
Leaf sections of cotton plants (Gossypium hirsutum) are treated by immersion in the active compound preparation at the desired concentration and after drying of the coating are infected with adults of the white fly (Bemisia tabaci, resistant strain).
After the desired time the death rate in % is determined. Here 100% means that all animals were killed; 0% means that no animals were killed.

The nature of the next series: physchem. The conditions noted are these: pH 2.
Series [8] concerns fall army worm (Spodoptera frugiperda). Put plainly: Spodoptera frugiperda test, Example G. The conditions noted are these: 500 g a.i./ha, cabbage leaves, immersion, caterpillars. The format is in vivo. The protocol:
as §1
Cabbage leaves (Brassica oleracea) are treated by immersion in the active compound preparation at the desired concentration and infected with caterpillars of the fall army worm (Spodoptera frugiperda) while the leaves are still wet.
After the desired time the death rate in % is determined. Here 100% means that all caterpillars were killed; 0% means that no caterpillars were killed.

With `CON/C(=N\C#N)NCc1ccc(Cl)nc1`, the “Activity in % after 5d” value in series [1] is on record as 100%.

`CON/C(=N/[N+](=O)[O-])NCc1cnc(Cl)s1` [drawing 35]: the “Death rate in % after 14d” value in series [2] is listed as 90%.

Turning to `CON/C(=N\[N+](=O)[O-])N(C)Cc1ccc(Cl)nc1`, the “Activity in % after 5d” value in series [1] was found to be 100%.

On to `CCON/C(=N/[N+](=O)[O-])NCc1ccc(Cl)nc1` [Example I-2], for which the “Death rate in % after 4d” value in [3] (500 ppm, after 4 d) turned out to be 100%. For the same molecule, the “activity in Myzus test, spray treatment” value in [3] is given as “good activity”.

Regarding `CON/C(=N\[N+](=O)[O-])NCc1ccc(Cl)nc1` [Example I-1, N-methoxy-N′-(2-chloropyrid-5-ylmethyl)nitroguanidine], in series [4], the “Death rate in % after 6d” value turned out to be 98%. Besides, the “Death rate in % after 7d” value in series [5] (8 ppm (mg/l soil)) and in series [6] (8 ppm (mg/l soil)) was 100% throughout.

In the case of `CON/C(=N/[N+](=O)[O-])NCc1cnc(Cl)s1` [Example I-5], in [4], the “Death rate in % after 6d” value is listed as 98%. Further, the “activity in Myzus persicae test” value in [4] (cabbage leaves) is on record as “good activity”. Moreover, the figures for the “Death rate in % after 7d” value in series [5] (0.25 ppm (mg/l soil)) and in series [6] (0.25 ppm (mg/l soil)) were 85% and 80%, respectively. Besides, the “activity in Myzus persicae test, soil application” value in [5] is recorded as “good activity”. Besides, in series [6], the “activity in Aphis gossypii test, soil application” value is recorded as “good activity”. Besides, in series [7] (1000 ppm, after 3 d, adults), the “Death rate in % after 3d” value is listed as 93%. Also, the “activity in Bemisia tabaci test, resistant strain” value in series [7] is listed as “good activity”. Besides, the logP in “physchem” worked out at 1.13.

Consider `CON/C(=N\C#N)NCc1cnc(Cl)s1`, for which the “Death rate in % after 7d” value in series [8] is 100%.

Values taken from patent US7763640B2, “Substituted oxyguanidines” (Bayer CorpScience AG, priority 2004, dated 2010).
